The results in this text go back to ChEMBL document CHEMBL1142482, “Synthesis of novel benzamidine- and guanidine-derived polyazamacrocycles: Selective anti-protozoal activity for human African trypanosomiasis” (Bioorg Med Chem Lett, 2008).

The EC50 is the midpoint of the concentration-response curve. A higher EC50 goes with a less potent agent. The term logP denotes a log measure of how a compound divides between an organic and an aqueous phase. A low value points to a more hydrophilic compound.

The test system of the first data set is Trypanosoma brucei. Nature of the data set: Antitrypanosomal activity against bloodstream Trypanosoma brucei P2 by Alamar blue assay. The format is functional, organism-based.
Conditions: not given
On the technique in general: Resazurin is reduced to fluorescent resorufin, in cell work by metabolically active cells.
In turn, `c1ccc2c(c1)ccc1ccc(C3CNCCNCCNCCN3)cc12` (stereo unspecified) returned an EC50 of 1.3 µM.
The same measure, in the same setting: with `N=C(N)NCc1ccc(C2CNCCNCCNCCN2)cc1` (stereo unspecified) the figure was 41.2 µM; with `N=C(N)c1ccc(C2CNCCNCCNCCN2)cc1` (stereo unspecified), 22 µM; with `O=C(Nc1ccc([N+](=O)[O-])cc1)OCCN1CCN(CCOC(=O)Nc2ccc([N+](=O)[O-])cc2)CCN(CCOC(=O)Nc2ccc([N+](=O)[O-])cc2)CCN(CCOC(=O)Nc2ccc([N+](=O)[O-])cc2)CC1`, 0.5 µM.
The same measure, in the same setting: with `NCc1ccc(C2CNCCNCCNCCN2)cc1` (stereo unspecified) the figure was more than 200 µM.
For `N#Cc1ccc(C2CNCCNCCNCCN2)cc1` (stereo unspecified), the EC50 was more than 200 µM.

In another data set the test system is Plasmodium falciparum. The data set can be described thus: Antiplasmodial activity against Plasmodium falciparum. The format is functional, organism-based.
Conditions: not given
On to `c1ccc2c(c1)ccc1ccc(C3CNCCNCCNCCN3)cc12` (stereo unspecified), for which the EC50 is less than 1.5 µM.
Same read-out and setting: the value for `N=C(N)NCc1ccc(C2CNCCNCCNCCN2)cc1` (stereo unspecified) was more than 100 µM; that for `N=C(N)c1ccc(C2CNCCNCCNCCN2)cc1` (stereo unspecified) was more than 100 µM; that for `NCc1ccc(C2CNCCNCCNCCN2)cc1` (stereo unspecified) was more than 100 µM.
Same read-out and setting: the value for `N#Cc1ccc(C2CNCCNCCNCCN2)cc1` (stereo unspecified) was more than 100 µM.

Tested on in another data set: not listed separately
Nature of the data set: Cytotoxicity against HEK cells. The format is cell-based. Particulars: Homo sapiens, HEK293.
`c1ccc2c(c1)ccc1ccc(C3CNCCNCCNCCN3)cc12` (stereo unspecified) returned an EC50 of 24.9 µM.
On the same count and under the same terms, the value for `N=C(N)NCc1ccc(C2CNCCNCCNCCN2)cc1` (stereo unspecified) was more than 200 µM; that for `N=C(N)c1ccc(C2CNCCNCCNCCN2)cc1` (stereo unspecified) was more than 200 µM; that for `O=C(Nc1ccc([N+](=O)[O-])cc1)OCCN1CCN(CCOC(=O)Nc2ccc([N+](=O)[O-])cc2)CCN(CCOC(=O)Nc2ccc([N+](=O)[O-])cc2)CCN(CCOC(=O)Nc2ccc([N+](=O)[O-])cc2)CC1` was 1.3 µM.
On to `NCc1ccc(C2CNCCNCCNCCN2)cc1` (stereo unspecified), for which the EC50 was more than 200 µM.
The same measure, in the same setting: with `N#Cc1ccc(C2CNCCNCCNCCN2)cc1` (stereo unspecified) the figure was more than 200 µM.

Tested on in another data set: not listed separately
Nature of the data set: Lipophilicity, log P of the compound. It counts as physicochemical. To be noted: octanol/water.
Molecule `N=C(N)NCc1ccc(C2CNCCNCCNCCN2)cc1` (stereo unspecified) gave a logP of -1.64.
For `N=C(N)c1ccc(C2CNCCNCCNCCN2)cc1` (stereo unspecified), the logP was -1.44.
`NCc1ccc(C2CNCCNCCNCCN2)cc1` (stereo unspecified) came in with a lipophilicity (logP) of -1.12.
Still for that read-out and setting: the value for `N#Cc1ccc(C2CNCCNCCNCCN2)cc1` (stereo unspecified) was -0.65.
